Patent publication US20070276045A1, “Anti-Bacterial Compounds” (priority 2004, published 2007)
≈ marks a conversion by molar mass, not a printed value. Like-named read-outs stand apart in the source and are kept apart here.

Assays:
[1] = test system: C. xerosis DSM 20170; test: Bacteriostatic activity (MIC), microtiter broth turbidity; format: cell-based; conditions: Corynebacterium xerosis, read-out: MIC (minimal inhibitory concentration)
From the text: (§1) The bacteriostatic effects of the compounds of the present invention are compared with those of known anti-bacterial agents against human skin bacteria. Typical bacteria (Corynebacterium and Staphylococcus strains) isolated from the human axilla and commercially available strains are used.
(§2) The different axilla bacteria are isolated from the human axilla according to techniques known in the art, in particular according to standard microbiological practice. They are taxonomically identified by cell morphology, gram-reaction and biochemical tests included in the Api coryne test kit (BioMerieux, France). Strain Staphylococcus epidermidis Ax25 is identified by fatty acid methyl ester analysis (FAME; German type strain collection DSMZ, Germany) . […] The strains are maintained on Tryptic soy broth plates, this standard medium being supplemented with 5 g per Litre of Polyoxyethylene Sorbitan Monooleate (Tween™ 80). Plates are incubated at 36° C. for a period of 48 hours. The bacteria are then swabbed from the plates and suspended in 4 ml of Muller-Hinton broth supplemented with 100 mg of Tween™ 80 per Litre (MH-Tween) and incubated again at 36° C. for 16 hours. Following incubation the bacterial suspensions are diluted in MH-Tween to obtain a final cell density of 10^7 colony forming units per ml. These diluted suspensions of the different test organisms are distributed to different columns of a microtiter plate, 100 μl per well. The test compounds are dissolved in dimethylsulfoxide (DMSO) at various test concentrations and 2.5 μl of these different DMSO solutions are added to the different wells of the test plates. The plates are covered with plastic films and incubated for 24 h at 36° C. with shaking at 250 rpm. The turbidity developing in the microtiter platesi then examined after 24 h to determine microbial growth.

[2] = test system: Escherichia coli DSM 682; test: as above; format: cell-based; conditions: read-out: MIC (minimal inhibitory concentration)
From the text: as §1, §2

[3] = test system: S. epidermidis Ax 25; test: as above; format: cell-based; conditions: Staphylococcus epidermidis, read-out: MIC (minimal inhibitory concentration)
From the text: as §1, §2

[4] = test system: Staphylococcus aureus DSM 799; test: as above; format: cell-based; conditions: read-out: MIC (minimal inhibitory concentration)
From the text: as §1, §2

[5] = test system: Corynebacterium Ax 7; test: as above; format: cell-based, Corynebacterium group G; conditions: read-out: MIC (minimal inhibitory concentration)
From the text: as §1, §2

[6] = test system: Corynebacterium Ax 15; test: as above; format: cell-based, Corynebacterium jeikeium; conditions: read-out: MIC (minimal inhibitory concentration)
From the text: as §1, §2

[7] = test system: C. xerosis DSM 20170; test: Bactericidal activity (MBC), 60 min contact; format: cell-based; conditions: Corynebacterium xerosis, DSM20170, 1 h, inoculum completely killed after 60 min incubation, read-out: MBC (minimal bactericidal concentration)
From the text: (§3) The different axilla bacteria are isolated from the human axilla according to techniques known in the art, in particular according to standard microbiological practice. They are taxonomically identified by cell morphology, gram-reaction and biochemical tests included in the Api coryne test kit (BioMerieux, France). Strain Staphylococcus epidermidis Ax25 is identified by fatty acid methyl ester analysis (FAME; German type strain collection DSMZ, Germany) . Escherichia coli DSM 682, Staphylococcus aureus DSM 799, and Corynebacterium xerosis DSM 20170 are obtained from the German-type strain collection. The strains are maintained on Tryptic soy broth plates, this standard medium being supplemented with 5 g per Litre of Polyoxyethylene Sorbitan Monooleate (TweenTM 80). Plates are incubated at 36° C. for a period of 48 hours. The bacteria are then swabbed from the plates and suspended in 4 ml of Muller-Hinton broth supplemented with 100 mg of TweenTM 80 per Litre (MH-Tween) and incubated again at 36° C. for 16 hours. Following incubation the bacterial suspensions are diluted in MH-Tween to obtain a final cell density of 10^7 colony forming units per ml. These diluted suspensions of the different test organisms are distributed to different columns of a microtiter plate, 100 μl per well. The test compounds are dissolved in dimethylsulfoxide (DMSO) at various test concentrations and 2.5 μl of these different DMSO solutions are added to the different wells of the test plates. The plates are covered with plastic films and incubated for 24 h at 36° C. with shaking at 250 rpm. The turbidity developing in the microtiter […] examined after 24 h to determine microbial growth. […] The bacteria are grown, harvested and diluted under the same conditions as described in the example above and added to microtiter plates (100 μl per well), each well containing 2.5 μl of the different DMSO solutions as described above. After 60 min incubation, 0.5 μl of the bacterial culture from each well (corresponding to 5×10^3 cfu in the control treatment) is transferred to a fresh microtiter plate which contained 100 μl per well of fresh medium. The plates are covered with plastic films and incubated for 24 h at 36° C. with shaking at 250 rpm. The turbidity developing in the microtiter plates is then examined after 24 h to determine microbial growth. The minimal concentration of test compounds which completely killed the bacterial inoculum is determined as the minimal bactericidal concentration (MBC).

[8] = test system: S. epidermidis Ax 25; test: Bactericidal activity (MBC), 60 min contact; format: cell-based; conditions: Staphylococcus epidermidis, AX25, 1 h, inoculum completely killed after 60 min incubation, read-out: MBC (minimal bactericidal concentration)
From the text: as §3

[9] = test system: Corynebacterium Ax 7; test: Bactericidal activity (MBC), 60 min contact; format: cell-based, Corynebacterium group G; conditions: AX7, 1 h, inoculum completely killed after 60 min incubation, read-out: MBC (minimal bactericidal concentration)
From the text: as §3

[10] = test system: Corynebacterium Ax 15; test: Bactericidal activity (MBC), 60 min contact; format: cell-based, Corynebacterium jeikeium; conditions: AX15, 1 h, inoculum completely killed after 60 min incubation, read-out: MBC (minimal bactericidal concentration)
From the text: as §3

[11] = Staphylococcus aureus, DSM799, 24 h
[12] = DSM20170, C. xerosis DSM 20170, growth inhibited by at least 80%, 24 h at 36° C.
[13] = DSM682, Escherichia coli DSM 682, growth inhibited by at least 80%, 24 h at 36° C.
[14] = AX25, S. epidermidis Ax 25, growth inhibited by at least 80%, 24 h at 36° C.
[15] = DSM799, Staphylococcus aureus DSM 799, growth inhibited by at least 80%, 24 h at 36° C.
[16] = AX7, Corynebacterium Ax 7, growth inhibited by at least 80%, 24 h at 36° C.
[17] = AX15, Corynebacterium Ax 15, growth inhibited by at least 80%, 24 h at 36° C.

MIC [1, 12] [µg/mL] | MIC [2, 13] [µg/mL] | MIC [3, 14] [µg/mL] | MIC [4, 15] [µg/mL] | MIC [5, 16] [µg/mL] | MIC [6, 17] [µg/mL] | Compound | MIC ([1]; DSM20170, 24 h) [µg/mL] | MIC ([2]; Escherichia coli, DSM682, 24 h) [µg/mL] | MIC ([3]; AX25, 24 h) [µg/mL] | MIC [4, 11] [µg/mL] | MIC ([5]; Corynebacterium, AX7, 24 h) [µg/mL] | MIC ([6]; Corynebacterium, AX15, 24 h) [µg/mL] | MBC [7] [µg/mL] | MBC [8] [µg/mL] | MBC [9] [µg/mL] | MBC [10] [µg/mL]
 |  |  |  |  |  | Oc1cc(Cl)ccc1Oc1ccc(Cl)cc1Cl [C4, Triclosan, reference compound] | 15 (≈ 0.0518 mM) | 5 (≈ 0.0173 mM) | 0.15 (≈ 0.000518 mM) | 5 (≈ 0.0173 mM) | 30 (≈ 0.104 mM) | 30 (≈ 0.104 mM) |  |  |  | 
80 (≈ 0.36 mM) | > 10000 | 160 (≈ 0.72 mM) | 160 (≈ 0.72 mM) | 140 (≈ 0.63 mM) | 160 (≈ 0.72 mM) | CC(C)=CCCC(C)=CCCC(C)=CCO [C3, Farnesol, reference compound] |  |  |  |  |  |  |  |  |  | 
80 (≈ 0.31 mM) | 2500 (≈ 9.68 mM) | 1250 (≈ 4.84 mM) | 80 (≈ 0.31 mM) | 160 (≈ 0.619 mM) | 80 (≈ 0.31 mM) | CCCCCCC(CCCC)C(=O)OCC(=O)O (stereo not drawn) [compound 8, 2-Butyl-octanoic acid carboxymethyl ester] |  |  |  |  |  |  | 2500 (≈ 9.68 mM) | 1250 (≈ 4.84 mM) | 1250 (≈ 4.84 mM) | 2500 (≈ 9.68 mM)
630 (≈ 2.45 mM) | 1250 (≈ 4.86 mM) | 1250 (≈ 4.86 mM) | 1250 (≈ 4.86 mM) | 1250 (≈ 4.86 mM) | 1250 (≈ 4.86 mM) | CCCCCCC(CCCC)C(=O)NCC(=O)O (stereo not drawn) [compound 10, (2-Butyl-octanoylamino)-acetic acid] |  |  |  |  |  |  | 2500 (≈ 9.71 mM) | 2500 (≈ 9.71 mM) | 1250 (≈ 4.86 mM) | > 2500
313 (≈ 1.18 mM) | 2500 (≈ 9.46 mM) | 625 (≈ 2.36 mM) | 625 (≈ 2.36 mM) | 625 (≈ 2.36 mM) | 1250 (≈ 4.73 mM) | CC(COCC(=O)O)Cc1ccc(C(C)(C)C)cc1 (stereo not drawn) [compound 1, [3-(4-tert.-Butyl-phenyl)-2-methyl-propoxy]-acetic acid] |  |  |  |  |  |  | 2500 (≈ 9.46 mM) | ≥ 5000 | 2500 (≈ 9.46 mM) | ≥ 5000
 |  |  |  |  |  | CCCCC(CC)COCC(O)CO (stereo not drawn) [C2, 3-(2-Ethyl-hexyloxy)-propane-1,2-diol, reference compound] | 630 (≈ 3.08 mM) | 630 (≈ 3.08 mM) | 1250 (≈ 6.12 mM) | 630 (≈ 3.08 mM) | 1250 (≈ 6.12 mM) | 1250 (≈ 6.12 mM) |  |  |  | 
